Assay results published in ChEMBL document CHEMBL4130435, “Acetylcholinesterase Inhibitory Alkaloids from the Whole Plants of Zephyranthes carinata” (J Nat Prod, 2017).

Each compound was assayed against Acetylcholinesterase (Homo sapiens, UniProt P22303) (assay: Inhibition of AChE (unknown origin)).
Sequence of Acetylcholinesterase (P22303 whole entry): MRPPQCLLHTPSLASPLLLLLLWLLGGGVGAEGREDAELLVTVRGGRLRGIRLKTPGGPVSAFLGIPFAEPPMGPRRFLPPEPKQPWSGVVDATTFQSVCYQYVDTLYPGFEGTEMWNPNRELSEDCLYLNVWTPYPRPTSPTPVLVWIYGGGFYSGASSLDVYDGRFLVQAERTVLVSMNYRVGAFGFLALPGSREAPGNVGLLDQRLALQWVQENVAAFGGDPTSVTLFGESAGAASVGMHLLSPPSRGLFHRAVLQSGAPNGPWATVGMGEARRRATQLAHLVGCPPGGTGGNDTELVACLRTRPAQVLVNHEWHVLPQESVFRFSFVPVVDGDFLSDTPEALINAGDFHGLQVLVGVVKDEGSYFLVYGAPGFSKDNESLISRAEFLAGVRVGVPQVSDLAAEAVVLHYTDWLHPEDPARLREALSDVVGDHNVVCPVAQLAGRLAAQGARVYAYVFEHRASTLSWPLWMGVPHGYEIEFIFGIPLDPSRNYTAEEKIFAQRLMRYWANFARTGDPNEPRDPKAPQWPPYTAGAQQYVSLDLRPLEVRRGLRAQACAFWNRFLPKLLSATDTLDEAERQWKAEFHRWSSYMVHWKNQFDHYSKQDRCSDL

Question: For CO[C@@H]1C=C[C@@]23c4cc5c(cc4C[N@@+]([O-])(CCO)[C@@H]2C(=O)N(C)[C@H]3C1)OCO5, which IC50 is on record?
Answer: 126 µM

Question: Which IC50 does the source give for CO[C@@H]1C=C[C@@]23c4cc5c(cc4C(=O)N(C)[C@@H]2C(=O)N(C)[C@H]3C1)OCO5 here?
Answer: > 200 µM

Question: For CO[C@@H]1C=C[C@@]2(CN(CCC(C)C)Cc3cc4c(cc32)OCO4)[C@@H](N(C)C=O)C1, which IC50 is on record?
Answer: > 200 µM

Question: Which IC50 does the source give for O[C@H]1[C@H]2c3cc4c(cc3CN3CCC(=C[C@@H]1O)[C@H]23)OCO4 [LYCORINE] here?
Answer: > 200 µM

Question: CO[C@@H]1C=C[C@@]23c4cc5c(cc4C[N@@+]([O-])(CCc4ccc(O)cc4)[C@@H]2C(=O)N(C)[C@H]3C1)OCO5 was tested. Which IC50 did it give?
Answer: > 200 µM

Question: How did the IC50 turn out when CO[C@@H]1C=C[C@@]23c4cc5c(cc4C[N@@+]([O-])(CCc4ccccc4)[C@@H]2C(=O)N(C)[C@H]3C1)OCO5 was run?
Answer: > 200 µM

Question: For COc1cc2c(cc1OC)[C@@H]1[C@H](O)[C@@H](OC)C=C3CCN(C2)[C@H]31 [GALANTHINE], which IC50 is on record?
Answer: 6.1 µM

Question: With COc1cc2c(cc1O)[C@@H]1[C@H](O)[C@@H](OC)C=C3CC[N@@+]([O-])(C2)[C@H]31 as the compound, how does the IC50 read?
Answer: > 200 µM

Question: CO[C@@H]1C=C[C@@]23c4cc5c(cc4CN(CCc4ccc(O)cc4)[C@@H]2C(=O)N(C)[C@H]3C1)OCO5 was tested. Which IC50 did it give?
Answer: > 200 µM

Question: How did the IC50 turn out when COc1cc2c3c(c1)c1cc(=O)c(OC)cc-1cn3CC2 was run?
Answer: 35.6 µM

Question: For CN[C@H]1C[C@H](OC)C=C[C@@]12C(=O)N(CCC(C)C)Cc1cc3c(cc12)OCO3, which IC50 is on record?
Answer: > 200 µM

Question: How did the IC50 turn out when COc1cc2c(cc1OC)[C@@H]1[C@H](O)[C@@H](OC)C=C3CC[N@+]([O-])(C2)[C@H]31 was run?
Answer: > 200 µM

Question: Which IC50 does the source give for CO[C@@H]1C=C[C@@]23c4cc5c(cc4C(=O)N(CCC(C)C)[C@@H]2C(=O)N(C)[C@H]3C1)OCO5 here?
Answer: > 200 µM

Question: For CO[C@@H]1C=C[C@@]23c4cc5c(cc4C(=O)N(CCC(C)C)[C@@H]2CN(C)[C@@H]3C1)OCO5, which IC50 is on record?
Answer: > 200 µM

Question: For COc1ccc2c3c1O[C@H]1C[C@H](O)CC[C@@]31CCN(C)C2, which IC50 is on record?
Answer: 57.9 µM

Question: How did the IC50 turn out when CO[C@@H]1C=C[C@@]23c4cc5c(cc4CN(C)[C@@H]2C(=O)N(C)[C@H]3C1)OCO5 was run?
Answer: > 200 µM

Question: With CO[C@@H]1C=C[C@@]23c4cc5c(cc4CN(CCC(C)C)[C@]2(C(C)=O)C(=O)N(C)[C@H]3C1)OCO5 as the compound, how does the IC50 read?
Answer: > 200 µM

Question: With COc1ccc2c3c1O[C@H]1C[C@@H](O)C=C[C@@]31[C@H](O)C[N@@+](C)([O-])C2 as the compound, how does the IC50 read?
Answer: > 200 µM

Question: Which IC50 does the source give for COc1cc2c(cc1O)[C@@H]1[C@H](O)[C@@H](OC)C=C3CCN(C2)[C@H]31 here?
Answer: > 200 µM

Question: With COc1ccc2c3c1O[C@H]1C[C@@H](O)CC[C@@]31CC[N@@+](C)([O-])C2 as the compound, how does the IC50 read?
Answer: > 200 µM

Question: With COc1ccc2c3c1O[C@H]1C[C@@H](O)CC[C@@]31CCN(C)C2 as the compound, how does the IC50 read?
Answer: 20.1 µM

Question: COc1cc2c(cc1O)[C@@H]1[C@H](O)[C@@H](O)C=C3CCN(C2)[C@H]31 [PSEUDOLYCORINE] was tested. Which IC50 did it give?
Answer: 188 µM

Question: For CO[C@@H]1C=C[C@@]23c4cc5c(cc4CN(CCC(C)C)[C@@H]2C(=O)N(C)[C@H]3C1)OCO5, which IC50 is on record?
Answer: > 200 µM

Question: Which IC50 does the source give for CO[C@@H]1C=C[C@@]23c4cc5c(cc4CN(CCc4ccccc4)[C@@H]2C(=O)N(C)[C@H]3C1)OCO5 here?
Answer: > 200 µM
